Like-named read-outs stand apart in the source and are kept apart here.
Key:
[1] = test system: L6 cells (rat skeletal myoblasts); experiment: cells; conditions: L6, read-out: Cyt L6 IC50
[2] = test system: Trypanosoma brucei rhodesiense, STIB 900 strain, bloodstream forms; experiment: microbe, parasite or virus in culture
[3] = test system: Plasmodium falciparum, strain NF54, erythrocytic stages; experiment: microbe, parasite or virus in culture
[4] = test system: Plasmodium falciparum, strain NF54, erythrocytic stages
[5] = test system: Trypanosoma brucei rhodesiense, STIB 900 strain, bloodstream forms
[6] = test system: L6 cells (rat skeletal myoblasts); conditions: read-out: Cyt L6 IC50
[7] = read-out: T. b. rhod. pIC50 (converted)
[8] = NF54, read-out: P. falc. pIC50 (converted)

## O=C1C=C(Cc2ccc(F)cc2C(F)(F)F)C(=O)c2ccccc21 [Compound 4d, 2-{[4-Fluoro-2-(trifluoromethyl)phenyl]methyl}-1,4-naphthoquinone]
[1]
  IC50: 38400 nM
[2]; read-out: T. b. rhod. IC50
  IC50: 1740 nM
[2]; [7]
  IC50: 1740 nM
[3]; NF54, read-out: P. falc. IC50
  IC50: 2310 nM
[3]; [8]
  IC50: 2290 nM

## O=C1C=C(Cc2ccc(Cl)nc2)C(=O)c2ccccc21 [Compound 4e, 2-[(6-Chloropyridin-3-yl)methyl]-1,4-naphthoquinone]
[1]
  IC50: 3940 nM
[2]; read-out: T. b. rhod. IC50
  IC50: 522 nM
[2]; [7]
  IC50: 525 nM
[3]; NF54, read-out: P. falc. IC50
  IC50: 2010 nM
[3]; [8]
  IC50: 2000 nM

## CC1=C(Cc2ccccc2)C(=O)c2ccccc2C1=O [Compound 2a, 2-Benzyl-3-methyl-1,4-naphthoquinone]
[1]
  IC50: 45000 nM
[2]; read-out: T. b. rhod. IC50
  IC50: 62800 nM
[2]; [7]
  IC50: 63100 nM
[3]; NF54, read-out: P. falc. IC50
  IC50: 358 nM
[3]; [8]
  IC50: 355 nM

## O=C1C(Cc2ccc(C(F)(F)F)cc2)=C(C(F)(F)F)C(=O)c2ccccc21 [Compound 5b, 2-(Trifluoromethyl)-3-{[4-(trifluoromethyl)phenyl]methyl}-1,4-naphthoquinone]
[1]
  IC50: 2000 nM
[2]; read-out: T. b. rhod. IC50
  IC50: 1960 nM
[2]; [7]
  IC50: 1950 nM
[3]; NF54, read-out: P. falc. IC50
  IC50: 1460 nM
[3]; [8]
  IC50: 1450 nM

## CC1=C(Cc2ccc(F)cc2)C(=O)c2ccccc2C1=O [Compound 2p, 2-[(4-Fluorophenyl)methyl]-3-methyl-1,4-naphthoquinone]
[1]
  IC50: 51100 nM
[2]; read-out: T. b. rhod. IC50
  IC50: 33200 nM
[2]; [7]
  IC50: 33100 nM
[3]; NF54, read-out: P. falc. IC50
  IC50: 43 nM
[3]; [8]
  IC50: 42.7 nM

## CC1=C(Cc2cc(OC(F)(F)F)ccc2F)C(=O)c2ccccc2C1=O [Compound 2s, 2-{[2-Fluoro-5-(trifluoromethoxy)phenyl]methyl}-3-methyl-1,4-naphthoquinone]
[1]
  IC50: 83200 nM
[2]; read-out: T. b. rhod. IC50
  IC50: 75800 nM
[2]; [7]
  IC50: 75900 nM
[3]; NF54, read-out: P. falc. IC50
  IC50: 38 nM
[3]; [8]
  IC50: 38 nM

## CC1=C(Cc2cc(F)c(F)cc2F)C(=O)c2ccccc2C1=O [Compound 2i, 2-Methyl-3-[(2,4,5-trifluorophenyl)methyl]-1,4-naphthoquinone]
[1]
  IC50: 54500 nM
[2]; read-out: T. b. rhod. IC50
  IC50: 30400 nM
[2]; [7]
  IC50: 30200 nM
[3]; NF54, read-out: P. falc. IC50
  IC50: 44 nM
[3]; [8]
  IC50: 44.7 nM

## CC1=C(Cc2ccc(Cl)nc2)C(=O)c2ccccc2C1=O [Compound 2f, 2-[(6-Chloropyridin-3-yl)methyl]-3-methyl-1,4-naphthoquinone]
[1]
  IC50: 24200 nM
[2]; read-out: T. b. rhod. IC50
  IC50: 8270 nM
[2]; [7]
  IC50: 8320 nM
[3]; NF54, read-out: P. falc. IC50
  IC50: 37 nM
[3]; [8]
  IC50: 37.2 nM

## O=C1C=C(Cc2ccc(C(F)(F)F)cc2)C(=O)c2ccccc21 [Compound 4b, 2-{[4-(Trifluoromethyl)phenyl]methyl}-1,4-naphthoquinone]
[1]
  IC50: 19200 nM
[2]; read-out: T. b. rhod. IC50
  IC50: 503 nM
[2]; [7]
  IC50: 501 nM
[3]; NF54, read-out: P. falc. IC50
  IC50: 686 nM
[3]; [8]
  IC50: 692 nM

## CC1=C(Cc2ccc([N+](=O)[O-])cc2)C(=O)c2ccccc2C1=O [Compound 2g, 2-Methyl-3-[(4-nitrophenyl)methyl]-1,4-naphthoquinone]
[1]
  IC50: 19100 nM
[2]; read-out: T. b. rhod. IC50
  IC50: 28000 nM
[2]; [7]
  IC50: 28200 nM
[3]; NF54, read-out: P. falc. IC50
  IC50: 111 nM
[3]; [8]
  IC50: 110 nM

## CCN(CC)CCCC(C)Nc1ccnc2cc(Cl)ccc12 (centres unmarked) [Chl., chloroquine, reference compound]
[1]
  IC50: 91100 nM
[3]; NF54, read-out: P. falc. IC50
  IC50: 3 nM
[3]; [8]
  IC50: 3.02 nM

## O=C1C=C(Cc2ccc(C(F)(F)F)cc2F)C(=O)c2ccccc21 [Compound 4c, 2-{[2-Fluoro-4-(trifluoromethyl)phenyl]methyl}-1,4-naphthoquinone]
[1]
  IC50: 37000 nM
[2]; read-out: T. b. rhod. IC50
  IC50: 790 nM
[2]; [7]
  IC50: 794 nM
[3]; NF54, read-out: P. falc. IC50
  IC50: 1760 nM
[3]; [8]
  IC50: 1780 nM

## CC(=O)Nc1cccc(CC2=C(C)C(=O)c3ccccc3C2=O)c1 [Compound 2k, 2-[(3-Acetamidophenyl)methyl]-3-methyl-1,4-naphthoquinone]
[1]
  IC50: 16600 nM
[2]; read-out: T. b. rhod. IC50
  IC50: 39500 nM
[2]; [7]
  IC50: 39800 nM
[3]; NF54, read-out: P. falc. IC50
  IC50: 758 nM
[3]; [8]
  IC50: 759 nM

## CC(=O)Nc1ccc(CC2=C(C)C(=O)c3ccccc3C2=O)cc1 [Compound 2j, 2-[(4-Acetamidophenyl)methyl]-3-methyl-1,4-naphthoquinone]
[1]
  IC50: 16300 nM
[2]; read-out: T. b. rhod. IC50
  IC50: 28900 nM
[2]; [7]
  IC50: 28800 nM
[3]; NF54, read-out: P. falc. IC50
  IC50: 695 nM
[3]; [8]
  IC50: 692 nM

## CC1=C(Cc2cccc(NC(=O)CCC(F)(F)F)c2)C(=O)c2ccccc2C1=O [Compound 2o, 2-Methyl-3-{[3-(4,4,4-trifluorobutanamido)phenyl]methyl}-1,4-naphthoquinone]
[1]
  IC50: 87500 nM
[4]
  P. falc. pIC50: 6.17
[2]; read-out: T. b. rhod. IC50
  IC50: 50800 nM
[2]; [7]
  IC50: 51300 nM
[3]; NF54, read-out: P. falc. IC50
  IC50: 670 nM
[3]; [8]
  IC50: 631 nM

## O=C1C(Cc2ccc(C(F)(F)F)cc2F)=C(C(F)(F)F)C(=O)c2ccccc21 [Compound 5c, 2-{[2-Fluoro-4-(trifluoromethyl)phenyl]methyl}-3-(trifluoromethyl)-1,4-naphthoquinone]
[1]
  IC50: 805 nM
[2]; read-out: T. b. rhod. IC50
  IC50: 9410 nM
[2]; [7]
  IC50: 9330 nM
[3]; NF54, read-out: P. falc. IC50
  IC50: 2310 nM
[3]; [8]
  IC50: 2290 nM

## CC1=C(Cc2cccc(OC(F)(F)F)c2)C(=O)c2ccccc2C1=O [Compound 2r, 2-Methyl-3-{[3-(trifluoromethoxy)phenyl]methyl}-1,4-naphthoquinone]
[1]
  IC50: 80500 nM
[2]; read-out: T. b. rhod. IC50
  IC50: 26100 nM
[2]; [7]
  IC50: 26300 nM
[3]; NF54, read-out: P. falc. IC50
  IC50: 49 nM
[3]; [8]
  IC50: 49 nM

## CC1=C(Cc2cc(C(F)(F)F)ccc2F)C(=O)c2ccccc2C1=O [Compound 2e, 2-{[2-Fluoro-5-(trifluoromethyl)phenyl]methyl}-3-methyl-1,4-naphthoquinone]
[1]
  IC50: 43000 nM
[2]; read-out: T. b. rhod. IC50
  IC50: 93000 nM
[2]; [7]
  IC50: 93300 nM
[3]; NF54, read-out: P. falc. IC50
  IC50: 6 nM
[3]; [8]
  IC50: 5.75 nM

## CC1=C(Cc2cccc(NC(=O)C(F)(F)F)c2)C(=O)c2ccccc2C1=O [Compound 2m, 2-Methyl-3-{[3-(2,2,2-trifluoroacetamido)phenyl]methyl}-1,4-naphthoquinone]
[1]
  IC50: 13700 nM
[2]; read-out: T. b. rhod. IC50
  IC50: 24300 nM
[2]; [7]
  IC50: 24000 nM
[3]; NF54, read-out: P. falc. IC50
  IC50: 321 nM
[3]; [8]
  IC50: 324 nM

## 2-Methyl-2-{[4-(4,4,4-trifluorobutanamido)phenyl]methyl}-1,4-naphthoquinone [Compound 2n]
[4]; pIC50 = -log10 IC50 (M), P. falciparum NF54
  P. falc. pIC50: 6.80
[4]; ratio IC50 in L6 cells/IC50 in P. falciparum NF54
  SI (P. falc.): 92
[4]; read-out: P. falc. IC50, P. falciparum strain NF54, erythrocytic stages
  IC50: 159 nM
[5]
  T. b. rhod. pIC50: 4.14
[5]; ratio IC50 in L6 cells/IC50 in T. b. rhodesiense STIB900
  SI (T. b. rhod.): 0
[5]; read-out: T. b. rhod. IC50
  IC50: 72200 nM
[6]
  IC50: 14700 nM

## COc1cc([C@@H]2c3cc4c(cc3[C@H](O)[C@H]3COC(=O)[C@H]23)OCO4)cc(OC)c1OC [Pod., podophyllotoxin, reference compound]
[1]
  IC50: 24 nM

## CC1=C(Cc2ccc(OC(F)(F)F)cc2)C(=O)c2ccccc2C1=O [Compound 2q, 2-Methyl-3-{[4-(trifluoromethoxy)phenyl]methyl}-1,4-naphthoquinone]
[1]
  IC50: 123000 nM
[2]; read-out: T. b. rhod. IC50
  IC50: 81600 nM
[2]; [7]
  IC50: 81300 nM
[3]; NF54, read-out: P. falc. IC50
  IC50: 29 nM
[3]; [8]
  IC50: 28.8 nM

## CC1=C(Cc2ccc(C(F)(F)F)cc2F)C(=O)c2ccccc2C1=O [Compound 2c, 2-{[2-Fluoro-4-(trifluoromethyl)phenyl]methyl}-3-methyl-1,4-naphthoquinone]
[1]
  IC50: 61700 nM
[2]; read-out: T. b. rhod. IC50
  IC50: 81400 nM
[2]; [7]
  IC50: 81300 nM
[3]; NF54, read-out: P. falc. IC50
  IC50: 11 nM
[3]; [8]
  IC50: 11.5 nM

## CC1=C(Cc2ccc(F)cc2C(F)(F)F)C(=O)c2ccccc2C1=O [Compound 2d, 2-{[4-Fluoro-2-(trifluoromethyl)phenyl]methyl}-3-methyl-1,4-naphthoquinone]
[1]
  IC50: 62300 nM
[2]; read-out: T. b. rhod. IC50
  IC50: 23200 nM
[2]; [7]
  IC50: 23400 nM
[3]; NF54, read-out: P. falc. IC50
  IC50: 20 nM
[3]; [8]
  IC50: 20 nM

## O=C1C=C(Cc2ccccc2)C(=O)c2ccccc21 [Compound 4a, 2-Benzyl-1,4-naphthoquinone]
[1]
  IC50: 61600 nM
[2]; read-out: T. b. rhod. IC50
  IC50: 318 nM
[2]; [7]
  IC50: 316 nM
[3]; NF54, read-out: P. falc. IC50
  IC50: 2760 nM
[3]; [8]
  IC50: 2750 nM

## CC1=C(Cc2ccc([N+](=O)[O-])cc2F)C(=O)c2ccccc2C1=O [Compound 2h, 2-[(2-Fluoro-4-nitrophenyl)methyl]-3-methyl-1,4-naphthoquinone]
[1]
  IC50: 17400 nM
[2]; read-out: T. b. rhod. IC50
  IC50: 25500 nM
[2]; [7]
  IC50: 25700 nM
[3]; NF54, read-out: P. falc. IC50
  IC50: 22 nM
[3]; [8]
  IC50: 21.4 nM

## CC1=C(Cc2ccc(NC(=O)C(F)(F)F)cc2)C(=O)c2ccccc2C1=O [Compound 2l, 2-Methyl-3-{[4-(2,2,2-trifluoroacetamido)phenyl]methyl}-1,4-naphthoquinone]
[1]
  IC50: 16100 nM
[2]; read-out: T. b. rhod. IC50
  IC50: 23400 nM
[2]; [7]
  IC50: 23400 nM
[3]; NF54, read-out: P. falc. IC50
  IC50: 147 nM
[3]; [8]
  IC50: 148 nM

## O=C1C(Cc2ccccc2)=C(C(F)(F)F)C(=O)c2ccccc21 [Compound 5a, 2-Benzyl-3-(trifluoromethyl)-1,4-naphthoquinone]
[1]
  IC50: 10800 nM
[2]; read-out: T. b. rhod. IC50
  IC50: 1880 nM
[2]; [7]
  IC50: 1910 nM
[3]; NF54, read-out: P. falc. IC50
  IC50: 3800 nM
[3]; [8]
  IC50: 3800 nM

## Nc1nc(N)nc(Nc2ccc([As]3SCC(CO)S3)cc2)n1 (centres unmarked) [Mel., melarsoprol, reference compound]
[1]
  IC50: 24200 nM
[2]; read-out: T. b. rhod. IC50
  IC50: 6 nM
[2]; [7]
  IC50: 6.03 nM

Reference: article PMC11900971 (International Journal of Molecular Sciences, 2025)
